Here are results for eight compounds from patent US12662481B2, “Substituted 2-morpholinopyridine derivatives as ATR kinase inhibitors” (Repare Therapeutics Inc., priority 2019, dated 2026).

Read-outs that look alike come from different tables or passages of the source.

Experiment [1] addresses ATR/ATRIP (Homo sapiens, UniProt Q13535). Kind of experiment: ATR/ATRIP enzymatic assay (AlphaScreen, phosphorylation of p53). (In general: In Alpha technology, singlet oxygen from a donor bead excites a nearby acceptor bead.)
Protocol: Detection of ATR kinase activity utilized the AlphaScreen system to measure the phosphorylation of the substrate protein p53. […] Plates were incubated at room temperature in the dark for 4 hours and read on a BMG Polarstar using AlphaScreen dedicated filters. […] IC50 values were determined using a 4-parameter fit algorithm.
For experiment [2], the system named is ATR (CHK1 phosphorylation at Ser345 in HeLa S3 cells). Kind of experiment: ATR assay in HeLa S3 cells (CHK1 p-Ser345 AlphaScreen SureFire, gemcitabine). In kind it is cell-based. The settings on record: HeLa S3 whole cell assay, 3.5 to 4 hours. The procedure:
Media was then replaced by 20 μL per well Opti-MEM no phenol red and 5 μL of serial diluted compounds were added to the assay plate for a final DMSO concentration of 0.5%. […] The plate was incubated at 37° C., 5% CO2 for 3.5 to 4 hours.

[3] abbreviates: Homo sapiens, gemcitabine 1.5 μM.

Sequence of ATR/ATRIP (Q13535 whole entry): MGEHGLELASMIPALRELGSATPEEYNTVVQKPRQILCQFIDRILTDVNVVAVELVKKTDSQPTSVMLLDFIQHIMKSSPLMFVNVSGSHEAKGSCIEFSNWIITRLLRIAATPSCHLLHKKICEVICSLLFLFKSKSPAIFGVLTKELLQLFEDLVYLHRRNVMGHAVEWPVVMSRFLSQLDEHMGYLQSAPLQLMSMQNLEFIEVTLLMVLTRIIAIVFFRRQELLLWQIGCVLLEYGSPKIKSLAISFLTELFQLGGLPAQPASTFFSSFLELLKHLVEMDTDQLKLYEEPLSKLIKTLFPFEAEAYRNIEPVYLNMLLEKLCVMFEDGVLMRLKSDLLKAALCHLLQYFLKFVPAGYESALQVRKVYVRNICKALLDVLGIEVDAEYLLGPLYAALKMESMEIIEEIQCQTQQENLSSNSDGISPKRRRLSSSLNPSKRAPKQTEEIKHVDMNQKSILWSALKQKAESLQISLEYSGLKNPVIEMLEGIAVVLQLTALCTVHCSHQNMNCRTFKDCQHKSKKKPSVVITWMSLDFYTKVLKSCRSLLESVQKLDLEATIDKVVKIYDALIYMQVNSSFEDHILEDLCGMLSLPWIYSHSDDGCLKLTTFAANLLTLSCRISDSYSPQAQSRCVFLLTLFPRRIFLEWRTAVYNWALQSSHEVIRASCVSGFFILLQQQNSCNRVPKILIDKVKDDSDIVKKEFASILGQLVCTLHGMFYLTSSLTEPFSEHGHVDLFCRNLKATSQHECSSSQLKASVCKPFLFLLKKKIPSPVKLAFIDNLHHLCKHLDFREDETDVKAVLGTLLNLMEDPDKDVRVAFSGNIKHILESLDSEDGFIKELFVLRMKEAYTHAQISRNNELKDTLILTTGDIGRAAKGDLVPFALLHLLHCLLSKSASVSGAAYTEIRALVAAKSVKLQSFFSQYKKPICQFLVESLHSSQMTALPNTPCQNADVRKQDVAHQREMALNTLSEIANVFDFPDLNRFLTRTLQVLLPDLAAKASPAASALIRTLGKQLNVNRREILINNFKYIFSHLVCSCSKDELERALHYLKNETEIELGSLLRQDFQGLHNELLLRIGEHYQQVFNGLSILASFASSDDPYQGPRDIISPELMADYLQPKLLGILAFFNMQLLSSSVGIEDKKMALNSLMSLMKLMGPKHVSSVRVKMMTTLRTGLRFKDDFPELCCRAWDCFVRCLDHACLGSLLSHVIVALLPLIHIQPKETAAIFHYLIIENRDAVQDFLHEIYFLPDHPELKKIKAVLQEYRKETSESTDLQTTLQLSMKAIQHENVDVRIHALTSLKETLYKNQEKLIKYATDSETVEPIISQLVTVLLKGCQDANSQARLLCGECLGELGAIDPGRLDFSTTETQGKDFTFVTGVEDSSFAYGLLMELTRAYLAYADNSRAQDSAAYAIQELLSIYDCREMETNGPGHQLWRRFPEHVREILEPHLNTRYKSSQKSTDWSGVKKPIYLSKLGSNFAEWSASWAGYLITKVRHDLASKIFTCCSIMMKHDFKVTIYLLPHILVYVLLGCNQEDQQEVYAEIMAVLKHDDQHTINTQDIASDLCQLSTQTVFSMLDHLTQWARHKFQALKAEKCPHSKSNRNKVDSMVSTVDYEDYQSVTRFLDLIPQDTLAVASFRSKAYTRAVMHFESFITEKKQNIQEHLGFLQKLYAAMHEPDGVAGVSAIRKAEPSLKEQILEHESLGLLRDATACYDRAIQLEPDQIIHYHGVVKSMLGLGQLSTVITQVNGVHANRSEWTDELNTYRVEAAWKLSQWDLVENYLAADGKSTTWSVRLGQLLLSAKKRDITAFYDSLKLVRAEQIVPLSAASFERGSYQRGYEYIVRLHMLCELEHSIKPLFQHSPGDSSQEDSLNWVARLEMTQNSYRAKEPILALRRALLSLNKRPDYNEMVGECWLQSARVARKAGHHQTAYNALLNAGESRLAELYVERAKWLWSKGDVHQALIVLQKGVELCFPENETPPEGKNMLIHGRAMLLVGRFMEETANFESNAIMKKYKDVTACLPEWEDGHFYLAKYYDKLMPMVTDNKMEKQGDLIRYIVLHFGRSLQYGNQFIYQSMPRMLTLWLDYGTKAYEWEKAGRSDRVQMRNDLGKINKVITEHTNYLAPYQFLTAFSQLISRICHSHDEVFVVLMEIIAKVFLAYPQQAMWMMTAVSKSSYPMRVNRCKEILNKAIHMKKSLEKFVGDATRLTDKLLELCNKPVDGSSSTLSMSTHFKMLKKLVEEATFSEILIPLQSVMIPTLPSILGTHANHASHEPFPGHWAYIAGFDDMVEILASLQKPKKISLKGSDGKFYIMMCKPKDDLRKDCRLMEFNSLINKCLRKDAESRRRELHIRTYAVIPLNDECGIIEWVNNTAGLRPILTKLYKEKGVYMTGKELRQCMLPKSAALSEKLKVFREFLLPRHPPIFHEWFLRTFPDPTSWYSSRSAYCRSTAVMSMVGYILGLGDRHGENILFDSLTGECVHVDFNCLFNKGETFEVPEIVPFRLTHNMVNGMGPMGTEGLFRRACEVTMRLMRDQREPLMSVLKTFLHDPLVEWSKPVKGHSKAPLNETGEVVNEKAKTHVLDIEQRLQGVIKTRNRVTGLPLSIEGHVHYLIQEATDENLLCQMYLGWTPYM
Sequence of ATR/ATRIP (Q8WXE1 whole entry partner): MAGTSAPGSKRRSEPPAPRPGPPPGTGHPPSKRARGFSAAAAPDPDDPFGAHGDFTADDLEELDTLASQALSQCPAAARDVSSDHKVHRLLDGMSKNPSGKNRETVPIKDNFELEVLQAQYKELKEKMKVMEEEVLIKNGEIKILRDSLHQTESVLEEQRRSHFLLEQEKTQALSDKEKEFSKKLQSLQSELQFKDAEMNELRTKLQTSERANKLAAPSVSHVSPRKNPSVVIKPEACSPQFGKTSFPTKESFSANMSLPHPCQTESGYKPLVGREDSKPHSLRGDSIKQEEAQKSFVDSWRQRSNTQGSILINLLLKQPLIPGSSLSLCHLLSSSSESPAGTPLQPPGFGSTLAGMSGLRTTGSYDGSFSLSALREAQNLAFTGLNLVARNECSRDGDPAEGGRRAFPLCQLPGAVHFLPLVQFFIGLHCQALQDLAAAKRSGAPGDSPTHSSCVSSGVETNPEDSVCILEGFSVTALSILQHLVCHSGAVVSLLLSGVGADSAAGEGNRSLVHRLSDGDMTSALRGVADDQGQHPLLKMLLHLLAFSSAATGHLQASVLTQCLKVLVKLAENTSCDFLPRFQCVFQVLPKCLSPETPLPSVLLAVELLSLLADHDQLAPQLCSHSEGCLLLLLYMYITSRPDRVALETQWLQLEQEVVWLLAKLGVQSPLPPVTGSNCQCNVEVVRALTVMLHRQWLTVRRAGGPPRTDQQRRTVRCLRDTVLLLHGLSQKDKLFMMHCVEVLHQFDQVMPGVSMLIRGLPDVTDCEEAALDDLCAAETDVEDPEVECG

What is called IC50 is the concentration that gives 50% inhibition. In the case of `Cc1ccncc1-c1cc(N2CCOC[C@H]2C)nc2c1ccn2-c1cc[nH]n1` [Compound 9], in experiment [1], the IC50 came to 371 nM.
For `C[C@@H]1COCCN1c1cc(-c2nncs2)c2cnn(-c3cc[nH]n3)c2n1` [Compound 33], the IC50 in experiment [1] came to 154 nM.
Turning to `CC(C#N)c1cc(N2CCOC[C@H]2C)nc2c1cnn2-c1cc[nH]n1` (some centres unmarked) [Compound 47], in experiment [1] (read-out: ATR IC50, recombinant ATR/ATRIP 0.63 nM, 25 nM GST-p53, 3 μM ATP, 1 hour room temperature), the IC50 was found to be 12 nM.
In turn, `C[C@@H]1COCCN1c1cc([C@]2(O)C[C@H]3CC[C@@H](C2)O3)c2cnn(-c3cc[nH]n3)c2n1` [Compound 121] registered an IC50 in experiment [2] (setting [3]) of 0.9 nM.
On the same count and under the same terms, for `C[C@@H]1COCCN1c1cc(-c2ccccc2S(N)(=O)=O)c2cnn(-c3cc[nH]n3)c2n1` [Compound 126, (R)-2-(6-(3-methylmorpholino)-1-(1H-pyrazol-3-yl)-1H-pyrazolo[3,4-b]pyridin-4-yl)benzenesulfonamide] the value was 17 nM; for `C[C@@H]1COCCN1c1cc(N2CCOCC2=O)c2cnn(-c3cc[nH]n3)c2n1` [Compound 134], 41 nM; for `COC1(c2cc(N3CCOC[C@H]3C)nc3c2cnn3-c2cc[nH]n2)CCSCC1` [Compound 147], 0.8 nM.
In experiment [2] (gemcitabine […]), `C[C@@H]1COCCN1c1cc(-c2cccnc2C(F)(F)F)c2c(=O)[nH]n(-c3ccn[nH]3)c2n1` [Compound 151] showed an IC50 of 9.1 nM.
